Experimental data: ChEMBL document CHEMBL3784934, “N-Alkylpyrido[1',2':1,5]pyrazolo-[4,3-d]pyrimidin-4-amines: A new series of negative allosteric modulators of mGlu1/5 with CNS exposure in rodents” (Bioorg Med Chem Lett, 2016)

Assays:
Assay type in all cases: functional, cell-based
[1] = biological target: Metabotropic glutamate receptor 1 (Rattus norvegicus) (UniProt P23385); experiment: Negative allosteric modulation of rat mGluR1 expressed in HEK293 cells assessed as calcium mobilization at 30 uM by calcium mobilization assay relative to 100 uM glutamate
[2] = biological target: Metabotropic glutamate receptor 5 (Rattus norvegicus, UniProt P31424); experiment: Negative allosteric modulation of rat mGluR5 expressed in HEK293 cells assessed as inhibition of glutamate induced calcium mobilization by calcium mobilization assay
[3] = biological target: Metabotropic glutamate receptor 5 (Rattus norvegicus) (UniProt P31424); experiment: Negative allosteric modulation of rat mGluR5 expressed in HEK293 cells assessed as calcium mobilization at 30 uM by calcium mobilization assay relative to 100 uM glutamate
[4] = biological target: Metabotropic glutamate receptor 1 (Rattus norvegicus, UniProt P23385); experiment: Negative allosteric modulation of rat mGluR1 expressed in HEK293 cells assessed as inhibition of glutamate induced calcium mobilization by calcium mobilization assay
[5] = biological target: Metabotropic glutamate receptor 1 (Homo sapiens, UniProt Q13255); experiment: Negative allosteric modulation activity at recombinant human mGluR1a expressed in CHO cells assessed as inhibition of L-glutamate-induced intracellular Ca2+ mobilization
[6] = biological target: Metabotropic glutamate receptor 5 (Homo sapiens, UniProt P41594); experiment: Negative allosteric modulation activity at recombinant human mGluR5a expressed in CHO cells assessed as inhibition of L-glutamate-induced intracellular Ca2+ mobilization

Sequence of Metabotropic glutamate receptor 1 (Rattus norvegicus) (P23385 19-1199 limits assumed): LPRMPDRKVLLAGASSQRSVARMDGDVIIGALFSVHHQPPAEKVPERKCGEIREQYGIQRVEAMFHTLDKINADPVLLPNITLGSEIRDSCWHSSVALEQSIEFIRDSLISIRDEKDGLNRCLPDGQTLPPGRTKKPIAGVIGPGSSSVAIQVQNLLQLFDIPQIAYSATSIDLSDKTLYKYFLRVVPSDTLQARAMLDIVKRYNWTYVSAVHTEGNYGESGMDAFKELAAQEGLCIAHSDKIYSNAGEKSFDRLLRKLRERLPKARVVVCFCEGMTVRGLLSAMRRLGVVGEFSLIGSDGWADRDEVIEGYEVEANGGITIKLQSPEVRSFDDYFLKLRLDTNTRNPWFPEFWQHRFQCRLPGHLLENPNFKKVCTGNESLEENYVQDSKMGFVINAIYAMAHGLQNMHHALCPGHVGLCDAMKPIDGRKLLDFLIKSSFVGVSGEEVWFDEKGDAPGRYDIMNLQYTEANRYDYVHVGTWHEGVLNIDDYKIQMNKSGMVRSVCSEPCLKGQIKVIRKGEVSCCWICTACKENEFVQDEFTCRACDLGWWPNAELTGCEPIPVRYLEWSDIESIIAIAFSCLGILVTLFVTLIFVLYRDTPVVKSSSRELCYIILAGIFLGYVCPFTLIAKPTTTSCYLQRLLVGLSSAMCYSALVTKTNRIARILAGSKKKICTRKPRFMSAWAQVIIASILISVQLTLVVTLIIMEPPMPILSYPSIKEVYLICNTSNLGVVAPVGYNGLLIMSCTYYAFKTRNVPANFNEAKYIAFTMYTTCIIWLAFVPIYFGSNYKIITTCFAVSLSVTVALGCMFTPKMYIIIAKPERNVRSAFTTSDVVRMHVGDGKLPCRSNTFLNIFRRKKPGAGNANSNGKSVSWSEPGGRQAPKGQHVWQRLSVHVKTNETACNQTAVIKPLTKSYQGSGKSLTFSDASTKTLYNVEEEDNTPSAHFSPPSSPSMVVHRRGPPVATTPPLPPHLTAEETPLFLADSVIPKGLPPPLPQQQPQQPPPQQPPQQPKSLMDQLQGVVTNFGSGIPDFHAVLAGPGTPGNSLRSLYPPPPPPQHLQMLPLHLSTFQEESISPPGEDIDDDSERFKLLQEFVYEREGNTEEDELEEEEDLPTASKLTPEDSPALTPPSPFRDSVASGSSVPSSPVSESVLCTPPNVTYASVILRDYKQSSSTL
Sequence of Metabotropic glutamate receptor 5 (Rattus norvegicus) (P31424 21-1203 limits assumed): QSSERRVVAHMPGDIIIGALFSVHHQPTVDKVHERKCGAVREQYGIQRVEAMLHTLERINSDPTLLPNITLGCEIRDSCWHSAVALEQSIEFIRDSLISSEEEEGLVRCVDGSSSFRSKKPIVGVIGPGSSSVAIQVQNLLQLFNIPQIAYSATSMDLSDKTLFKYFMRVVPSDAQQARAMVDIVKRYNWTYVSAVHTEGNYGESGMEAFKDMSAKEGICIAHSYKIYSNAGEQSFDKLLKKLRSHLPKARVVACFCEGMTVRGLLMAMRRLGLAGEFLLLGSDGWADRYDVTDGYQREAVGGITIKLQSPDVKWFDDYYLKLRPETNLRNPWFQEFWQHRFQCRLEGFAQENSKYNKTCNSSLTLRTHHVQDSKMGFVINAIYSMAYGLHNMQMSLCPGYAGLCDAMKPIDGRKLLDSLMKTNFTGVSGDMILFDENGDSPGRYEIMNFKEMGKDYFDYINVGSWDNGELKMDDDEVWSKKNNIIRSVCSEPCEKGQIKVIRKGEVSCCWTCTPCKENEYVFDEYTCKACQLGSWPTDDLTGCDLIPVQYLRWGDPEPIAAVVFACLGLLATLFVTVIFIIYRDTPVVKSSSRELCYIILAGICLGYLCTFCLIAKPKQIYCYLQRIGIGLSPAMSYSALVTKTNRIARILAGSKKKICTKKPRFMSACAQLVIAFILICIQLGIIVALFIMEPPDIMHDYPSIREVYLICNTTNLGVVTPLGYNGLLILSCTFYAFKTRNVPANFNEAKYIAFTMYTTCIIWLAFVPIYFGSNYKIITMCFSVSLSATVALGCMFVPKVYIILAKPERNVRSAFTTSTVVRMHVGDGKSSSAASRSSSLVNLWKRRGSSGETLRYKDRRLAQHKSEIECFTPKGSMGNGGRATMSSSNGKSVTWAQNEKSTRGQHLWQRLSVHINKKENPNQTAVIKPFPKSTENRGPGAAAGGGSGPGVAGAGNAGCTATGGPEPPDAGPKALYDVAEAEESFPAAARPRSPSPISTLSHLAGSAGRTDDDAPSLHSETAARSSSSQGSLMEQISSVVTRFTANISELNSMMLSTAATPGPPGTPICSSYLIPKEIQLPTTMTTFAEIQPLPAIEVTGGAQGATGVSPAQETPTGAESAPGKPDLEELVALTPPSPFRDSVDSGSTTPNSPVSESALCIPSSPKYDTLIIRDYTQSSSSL
Sequence of Metabotropic glutamate receptor 1 (Rattus norvegicus, UniProt P23385) (P23385 whole entry): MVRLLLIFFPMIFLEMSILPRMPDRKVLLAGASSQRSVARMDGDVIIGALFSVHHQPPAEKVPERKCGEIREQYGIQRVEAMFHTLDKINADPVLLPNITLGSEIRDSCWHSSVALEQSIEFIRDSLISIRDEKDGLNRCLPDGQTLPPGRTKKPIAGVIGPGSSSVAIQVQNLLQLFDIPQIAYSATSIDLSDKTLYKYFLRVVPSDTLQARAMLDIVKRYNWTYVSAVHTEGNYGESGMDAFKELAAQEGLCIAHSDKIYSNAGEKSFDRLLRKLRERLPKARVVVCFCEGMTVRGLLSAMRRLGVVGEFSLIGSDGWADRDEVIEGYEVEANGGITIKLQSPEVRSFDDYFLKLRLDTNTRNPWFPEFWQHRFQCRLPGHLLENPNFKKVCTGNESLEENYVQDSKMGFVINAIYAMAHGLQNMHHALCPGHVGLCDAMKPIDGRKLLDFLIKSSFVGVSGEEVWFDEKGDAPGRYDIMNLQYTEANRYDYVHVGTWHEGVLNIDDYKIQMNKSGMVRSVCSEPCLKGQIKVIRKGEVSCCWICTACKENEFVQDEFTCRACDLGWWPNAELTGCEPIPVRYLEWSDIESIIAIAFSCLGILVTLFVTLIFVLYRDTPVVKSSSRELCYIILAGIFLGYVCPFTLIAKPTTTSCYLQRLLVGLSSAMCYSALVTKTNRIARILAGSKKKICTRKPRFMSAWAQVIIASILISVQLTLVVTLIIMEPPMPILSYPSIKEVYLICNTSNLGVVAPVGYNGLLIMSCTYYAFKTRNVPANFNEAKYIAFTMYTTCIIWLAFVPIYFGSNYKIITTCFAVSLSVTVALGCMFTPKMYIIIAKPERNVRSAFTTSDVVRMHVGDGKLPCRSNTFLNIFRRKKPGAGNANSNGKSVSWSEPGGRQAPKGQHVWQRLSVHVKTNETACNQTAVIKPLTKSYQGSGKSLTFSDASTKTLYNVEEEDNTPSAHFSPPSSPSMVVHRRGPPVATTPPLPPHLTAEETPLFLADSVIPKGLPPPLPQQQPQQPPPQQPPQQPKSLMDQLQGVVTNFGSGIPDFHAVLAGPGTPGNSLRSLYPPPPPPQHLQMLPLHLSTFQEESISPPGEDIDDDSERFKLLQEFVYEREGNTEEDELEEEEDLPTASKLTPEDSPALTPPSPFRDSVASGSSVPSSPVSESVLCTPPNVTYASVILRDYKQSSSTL
Sequence of Metabotropic glutamate receptor 5 (Rattus norvegicus, UniProt P31424) (P31424 whole entry): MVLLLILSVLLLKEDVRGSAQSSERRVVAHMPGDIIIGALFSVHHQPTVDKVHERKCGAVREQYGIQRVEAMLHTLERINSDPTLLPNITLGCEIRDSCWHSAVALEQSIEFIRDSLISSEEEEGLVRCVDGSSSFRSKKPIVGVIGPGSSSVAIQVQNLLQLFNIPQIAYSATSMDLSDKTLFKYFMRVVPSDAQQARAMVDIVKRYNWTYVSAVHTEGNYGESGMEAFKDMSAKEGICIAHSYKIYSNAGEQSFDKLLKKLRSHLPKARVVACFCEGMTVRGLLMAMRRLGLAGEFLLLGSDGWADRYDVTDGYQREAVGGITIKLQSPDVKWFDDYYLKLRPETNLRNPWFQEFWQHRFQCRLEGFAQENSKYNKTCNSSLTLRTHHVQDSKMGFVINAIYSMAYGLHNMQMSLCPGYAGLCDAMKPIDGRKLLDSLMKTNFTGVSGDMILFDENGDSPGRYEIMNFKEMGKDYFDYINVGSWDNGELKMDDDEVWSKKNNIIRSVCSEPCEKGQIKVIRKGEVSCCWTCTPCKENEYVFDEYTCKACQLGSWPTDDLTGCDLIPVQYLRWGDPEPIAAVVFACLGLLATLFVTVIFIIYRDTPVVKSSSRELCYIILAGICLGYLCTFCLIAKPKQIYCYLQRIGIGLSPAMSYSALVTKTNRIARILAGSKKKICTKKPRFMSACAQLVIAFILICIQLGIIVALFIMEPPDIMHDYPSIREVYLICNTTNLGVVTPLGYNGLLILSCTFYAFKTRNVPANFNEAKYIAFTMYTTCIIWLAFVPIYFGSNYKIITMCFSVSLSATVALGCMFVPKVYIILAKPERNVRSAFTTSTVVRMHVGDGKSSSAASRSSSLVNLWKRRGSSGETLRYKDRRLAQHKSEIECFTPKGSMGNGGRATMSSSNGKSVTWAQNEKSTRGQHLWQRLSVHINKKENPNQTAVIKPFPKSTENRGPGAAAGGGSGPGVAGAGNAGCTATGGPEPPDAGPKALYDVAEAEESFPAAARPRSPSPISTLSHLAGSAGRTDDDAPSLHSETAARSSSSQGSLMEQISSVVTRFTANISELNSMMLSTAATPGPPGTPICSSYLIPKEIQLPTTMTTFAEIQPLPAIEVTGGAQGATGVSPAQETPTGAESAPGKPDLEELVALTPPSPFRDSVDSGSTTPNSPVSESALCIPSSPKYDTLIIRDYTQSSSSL

Row | %max [1] | pIC50 ([2]; hek293) | IC50 ([2]; read-out: IC50) | %max [3] | IC50 [4] | IC50 ([2]; hek293, read-out: IC50) | IC50 ([2]; read-out: pIC50 (converted)) | IC50 [5] | IC50 [6] | SMILES
1 | 2.4% | < 5 | > 10 µM | 18.4% | – | – | – | – | – | C[C@@H](Nc1ncnc2c1nn1ccccc21)C1CCCCC1
2 | 2.7% | – | – | 9% | 0.152 µM | > 10 µM | > 10 µM | – | – | C[C@@H]1[C@H]2C[C@@H](C[C@H]1Nc1ncnc3c1nn1ccccc31)C2(C)C
3 | -0.5% | – | > 30 µM | – | – | – | > 31.6 µM | – | – | c1ccn2nc3c(NC4CCCCC4)ncnc3c2c1
4 | – | – | – | – | – | – | – | 0.028 µM | > 9.1 µM | OCCSc1nc2c(c(NC3Cc4ccccc4C3)n1)CCCC2
5 | -0.2% | – | > 30 µM | – | – | – | > 31.6 µM | – | – | C[C@H](Nc1ncnc2c1nn1ccccc21)C(C)(C)C
6 | 1.5% | – | 3.6 µM | 1.3% | 0.341 µM | – | – | – | – | CC(C)(C)CCNc1ncnc2c1nn1ccccc21
7 | 2.4% | – | > 30 µM | – | 0.484 µM | – | > 31.6 µM | – | – | OC12CC3CC(C1)CC(Nc1ncnc4c1nn1ccccc41)(C3)C2
8 | – | – | > 30 µM | – | > 30 µM | – | > 31.6 µM | – | – | COCCNc1nc(N[C@H]2CC[C@H](C)CC2)c2nn3ccccc3c2n1
9 | – | – | > 30 µM | – | > 30 µM | – | > 31.6 µM | – | – | CC(C)Nc1nc(N[C@H]2CC[C@H](C)CC2)c2nn3ccccc3c2n1
10 | – | – | > 30 µM | – | > 30 µM | – | > 31.6 µM | – | – | CN(C)c1nc(N[C@H]2CC[C@H](C)CC2)c2nn3ccccc3c2n1
11 | 1.9% | – | 3.29 µM | 1.3% | 0.094 µM | – | – | – | – | c1ccn2nc3c(NC4CCCCCCC4)ncnc3c2c1
12 | 7.1% | – | > 30 µM | – | – | – | > 31.6 µM | – | – | Cc1nc(N[C@H]2C[C@H]3CC[C@@]2(C)C3(C)C)c2nn3ccccc3c2n1
13 | 2.4% | – | – | – | 0.759 µM | – | – | – | – | Cc1nc(N[C@@H]2C[C@@H]3C[C@H]([C@H]2C)C3(C)C)c2nn3ccccc3c2n1
14 | 2.5% | – | – | 9.9% | 0.232 µM | > 10 µM | > 10 µM | – | – | c1ccn2nc3c(N[C@H]4C[C@@H]5CC[C@H]4C5)ncnc3c2c1
15 | 2.9% | – | 1.75 µM | 3.4% | 0.084 µM | – | – | – | – | c1ccn2nc3c(NC4C5CC6CC(C5)CC4C6)ncnc3c2c1 (stereo not given)
16 | 2.1% | – | – | 17.2% | 0.247 µM | – | – | – | – | c1ccc2c(c1)CC(Nc1ncnc3c1nn1ccccc31)C2
